What is called inhibition is the relative decrease from the control value, in per cent. By IC50 is commonly meant the concentration that gives 50% inhibition.

This is an account of results in article PMC8351955, “Targeting Mycobacterium tuberculosis response to environmental cues for the development of effective antitubercular drugs” (PLoS Biology, 2021).

Values joined by “and” are separate entries in the source; they are usually repeats but may differ in a detail not shown here. Identical values can stand only once. Like-named read-outs stand apart in the source and are kept apart here.

In test [1] the test system is Mtb growth in J774 macrophage-like cells. Kind of test: J774 infection in 96-well plates, mKO fluorescence 6 days post-infection. The format is cell-based, Mycobacterium tuberculosis. The conditions noted are these: for % Growth: Fig. 2D, DMSO = 100. The protocol: For J774 infection in 96-well plates, 1.8 × 10^5 J774 cells were seeded per well in 180 μl of J774 infection media 1 day prior to infection. On the day of the assay, log-phase Mtb constitutively expressing mKO were pelleted and resuspended in 1 ml basal uptake buffer, passed 6× through a tuberculin syringe with a 25 G × 5/8″ needle, then resuspended in J774 infection media to a final OD600 = 0.2. Media was removed from 96-well plate containing the J774 cells, with 140 μl of fresh J774 infection media added back to each well. A volume of 40 μl of the Mtb suspension at OD600 = 0.2 was added to each well, followed by addition of appropriate concentration of compound or DMSO in a 20-μl final volume in J774 infection media (compound final concentration 10 μM, rifampicin final concentration 5 μM, DMSO final concentration 0.1%/well). Bacterial mKO fluorescence was read immediately after infection using a Biotek Synergy Neo2 microplate reader (bottom read monochromator, excitation 543/10 nm, emission 565/10 nm), and again 6 days post-infection. Plates were kept in humidified ziplock bags in a 37°C, 5% CO2 incubator. mKO fluorescence in DMSO-treated control samples were defined as 100% growth, and fluorescence observed in treatment conditions calculated as a percentage from that set value.

For test [2], the system named is Mtb growth in J774 murine macrophage-like cells. Kind of test: microbe, parasite or virus in culture. Format: cell-based, Mycobacterium tuberculosis. The conditions noted are these: for inhibition at 20 µM / IC50 / inhibition at 10 µM: Mycobacterium tuberculosis; for IC50: J774 dose response 0.039-20 µM, read-out: ShuminTan.Mtb.Validation.Macrophage: IC50; for inhibition at 10 µM: read-out: J774 tertiary assay % inhibition compared to Rif at 10 µM compound; for NPI (Mtb growth in J774 cells), average: Fig 1F.

The subject of test [3] is CDC1551(rv2390c′::GFP) reporter Mtb strain, response to high [Cl−]. Kind of test: microbe, parasite or virus in culture. Format: cell-based, Mycobacterium tuberculosis. The conditions noted are these: for activity at 10 µM / activity at 20 µM / IC50: Mycobacterium tuberculosis; for activity at 10 µM / activity at 20 µM: 144 h; for activity at 20 µM: read-out: rv2390c'::GFP validation assay NPA% at 20 µM compound; for IC50: read-out: ShuminTan.MtbChloride.Validation: IC50; for ShuminTan.MtbChloride.Primary: NPI%: primary screen, Sheet2.

For test [4], the system named is CDC1551(rv1405c′::GFP) reporter Mtb strain. Kind of test: microbe, parasite or virus in culture. Format: cell-based, Mycobacterium tuberculosis. The settings on record: for IC50 / activity at 10 µM / activity at 20 µM: Mycobacterium tuberculosis; for IC50: read-out: ShuminTan.MtbChloride.Secondary: IC50; for activity at 10 µM: read-out: rv1405c'::GFP secondary assay NPA% at 10 µM compound; for activity at 20 µM: read-out: rv1405c'::GFP secondary assay NPA% at 20 µM compound.

The subject of test [5] is CDC1551(rv2390c′::GFP) reporter Mtb strain. The conditions noted are these: for Normalized % induction: Fig. 2C, DMSO = 100.
Test [6] concerns Mtb. Put plainly: Mtb growth assay in cholesterol medium (OD600). The conditions noted are these: for OD600: Fig. 2G.
Description: (§1) Bacterial growth was tracked by measuring OD600 every 3 days for 12 days. […] Bacterial growth was tracked by measurement of OD600 every 3 days over 12 days.
For test [7], the system named is Mtb. Kind of test: Mtb growth assay in standard 7H9 medium (OD600). The conditions noted are these: Fig. 2F.
Description: as §1
The mark [8] stands for this setting: J774, read-out: %inhibition compared to Rif in J774 at 20 uM.
[9] abbreviates: pH 6.4, […], DMSO positive control = 100%, read-out: Primary screen rv2390c'::GFP NPA%.
Setting [10] is: 10 µM, pH 6.4, 250 mM NaCl, 6 days, read-out: rv2390c'::GFP validation assay NPA% at 10 µM compound.
Setting [11] is: J774, 144 h, read-out: J774 tertiary assay % inhibition compared to Rif at 20 µM compound.

Regarding `CO[C@H]1/C=C/O[C@@]2(C)Oc3c(C)c(O)c4c(O)c(c(/C=N/N5CCN(C)CC5)c(O)c4c3C2=O)NC(=O)/C(C)=C\C=C\[C@H](C)[C@H](O)[C@@H](C)[C@@H](O)[C@@H](C)[C@H](OC(C)=O)[C@@H]1C` [Rif, rifampicin, reference compound], in test [1] (5 μM rifampicin, 6 days post-infection, DMSO = 100%, Fig 1H), the “% growth of Mtb in J774 cells, average” value stood at 8.618%. The “% Growth” value in test [1] (average of 4 replicates) is 10.744%; in test [1] (individual replicates), 10.4241% and 10.7119% and 11.5524% and 10.2878%.
As for `O=S1(=O)CC(S(=O)(=O)Nc2ccccc2-c2cccs2)c2ccccc21` (stereo not drawn) [RU-0214604, O=S(=O)(NC1=C(C=CC=C1)C1=CC=CS1)C1CS(=O)(=O)C2=C1C=CC=C2], the inhibition at 20 µM in test [2] (setting [8]) amounted to 14.8%. Further, the concentration for half-maximal inhibition (IC50) in test [2] was over 20 µM. In test [3], the “validation NPI at 10 uM” value amounted to 146, the “validation NPI at 20 uM” value amounted to 162, the half-inhibitory concentration (IC50) was under 0.0391 µM and the “ShuminTan.MtbChloride.Primary: NPI%” value came to 183.08%. In addition, the activity at 10 µM in test [3] (setting [9]) turned out to be 183%. The activity at 10 µM in test [3] (setting [10]) was determined as 145 ± 12%. Also, in test [3] (pH 6.4, 250 mM NaCl, 6 days), the activity at 20 µM worked out at 161 ± 3.2%. For the same compound, in test [4], the “rv1405c assay NPI at 10 uM” value turned out to be 181, the “rv1405c assay NPI at 20 uM” value was determined as 212, the IC50 was under 0.0391 µM and the activity at 10 µM was found to be 179 ± 26.5%. Also, the activity at 20 µM in test [4] turned out to be 213 ± 23.6%.
For the compound `Cc1ccc(NS(=O)(=O)c2ccc(C)c(F)c2)c(C(=O)O)c1` [RU-0273440, CC1=CC(C(O)=O)=C(NS(=O)(=O)C2=CC(F)=C(C)C=C2)C=C1], in test [2] (setting [8]), the inhibition at 20 µM came to 18.3%. Besides, the IC50 in test [2] is over 20 µM. Besides, in test [3], the “validation NPI at 10 uM” value was determined as 60.2, the “validation NPI at 20 uM” value worked out at 37.8, the IC50 is over 20 µM and the “ShuminTan.MtbChloride.Primary: NPI%” value stood at 49.3142%. The activity at 10 µM in test [3] (setting [9]) worked out at 49.3%. The activity at 10 µM in test [3] (setting [10]) worked out at 60.2 ± 7.2%. In addition, the activity at 20 µM in test [3] (pH 6.4, 250 mM NaCl, 6 days) came to 37.7 ± 5.2%. In test [4], the “rv1405c assay NPI at 10 uM” value stood at 34, the “rv1405c assay NPI at 20 uM” value came out at 23.8, the half-inhibitory concentration (IC50) is under 0.0391 µM and the activity at 10 µM came out at 33.8 ± 5.6%. The activity at 20 µM in test [4] came to 23.3 ± 4.7%.
For `N#Cc1nc(NC(=O)c2ccc(N3CCCC3)c(F)c2)[nH]c1C#N` [RU-0274370, FC1=C(C=CC(=C1)C(=O)NC1=NC(C#N)=C(N1)C#N)N1CCCC1], the inhibition at 10 µM in test [2] (J774, 144 h) was found to be 22.2 ± 0.2%. The inhibition at 20 µM in test [2] (setting [11]) amounted to 25.3 ± 4.1%. In addition, the activity at 10 µM amounted to 227% in test [3] (setting [9]), 143 ± 10% in test [3] (setting [10]) and 181 ± 7.8% in test [4]. For the same compound, the activity at 20 µM in test [3] (pH 6.4, 250 mM NaCl, 6 days) came out at 268 ± 20.8%; in test [4] it was 363 ± 8.7%.
As for `CCSc1ncc(CN2CCN(c3nc4ccccc4s3)CC2)cn1` [JSF-4298, 2-(4-((2-(ethylthio)pyrimidin-5-yl)methyl)piperazin-1-yl)benzo[d]thiazole], the Normalized % induction in test [5] (average of 3 replicates) was 128.692%; in test [5] (individual replicates) it was 127.109% and 127.993% and 130.974%. In test [5] (pH 7), the “Ability to increase rv2390c′::GFP reporter signal in high [Cl−]” value was “continuing to demonstrate the phenotypes seen with the parental C6 compound”. Further, the “Inhibition of Mtb growth in J774 cells” value in test [1] (10 μM, 6 days post-infection) is on record as “continuing to demonstrate the phenotypes seen with the parental C6 compound”. Besides, the “% Growth” value in test [1] (average of 4 replicates) was 72.2652%; in test [1] (individual replicates) it was 65.6342% and 77.3722% and 76.7437% and 69.3109%. The “Inhibition of Mtb growth in cholesterol media” value with Mtb [6] (10 μM, OD600 over 12 days) is listed as “continuing to demonstrate the phenotypes seen with the parental C6 compound”. For the same compound, the OD600 is 0.06 in the test on Mtb [6] (day 3, average); 0.06 with Mtb [6] (day 3, individual replicates); 0.09333 in the test on Mtb [6] (day 6, average); 0.08 and 0.1 (2×) in the test on Mtb [6] (day 6, individual replicates); 0.1333 in the test with Mtb [6] (day 9, average); 0.14 (2×) and 0.12 with Mtb [6] (day 9, individual replicates). The OD600 was 0.1533 in the test with Mtb [6] (day 12, average); 0.16 (2×) and 0.14 in the test on Mtb [6] (day 12, individual replicates); 0.1867 with Mtb [7] (day 3, average); 0.2 and 0.18 (2×) in the test with Mtb [7] (day 3, individual replicates); 0.38 with Mtb [7] (day 6, average); 0.36 and 0.38 and 0.4 in the test with Mtb [7] (day 6, individual replicates). In addition, the OD600 was 0.5067 with Mtb [7] (day 9, average); 0.5 (2×) and 0.52 in the test on Mtb [7] (day 9, individual replicates); 0.6467 in the test with Mtb [7] (day 12, average); 0.64 (2×) and 0.66 in the test with Mtb [7] (day 12, individual replicates).
For the compound `O=C(c1cnn2ccccc12)N1CCCC(CCc2cccc(C(F)(F)F)c2)C1` (stereo not drawn) [C5 analog, FC(F)(F)C1=CC=CC(CCC2CCCN(C2)C(=O)C2=C3C=CC=CN3N=C2)=C1], the “NPI (Mtb growth in J774 cells), average” value is recorded as -4.805% in test [2] (0.078125 µM, 5 µM rifampicin = 100% inhibition); -8.165% in test [2] (0.15625 µM); -7.245% in test [2] (0.3125 µM); 7.86% in test [2] (0.625 µM); -0.385% in test [2] (1.25 µM); 11.205% in test [2] (2.5 µM). The “NPI (Mtb growth in J774 cells), average” value in test [2] (5 µM) is 9.965%; in test [2] (10 µM) it was 21.35%; in test [2] (20 µM), 48.15%. The inhibition at 10 µM in test [2] (J774, 144 h) was found to be 21.4 ± 7.7%. In test [2] (setting [11]), the inhibition at 20 µM stood at 48.2 ± 1.5%. For the same compound, the values for the activity at 10 µM in test [3] (setting [9]), in test [3] (setting [10]) and in test [4] were 167%, 112 ± 12% and 110 ± 7.2%, respectively. In addition, the activity at 20 µM is 156 ± 9.9% in test [3] (pH 6.4, 250 mM NaCl, 6 days) and 150 ± 12% in test [4].
For `Cc1c(Cl)cccc1S(=O)(=O)Nc1nn(C(C)(C)C)cc1C#N` [RU-0208737, CC1=C(C=CC=C1Cl)S(=O)(=O)NC1=NN(C=C1C#N)C(C)(C)C], in test [2] (J774, 144 h), the inhibition at 10 µM came to 9.6 ± 0.7%. For the same compound, the inhibition at 20 µM in test [2] (setting [11]) turned out to be 20.9 ± 6.9%. Moreover, the values for the activity at 10 µM in test [3] (setting [9]), in test [3] (setting [10]) and in test [4] were 47.8%, 53.8 ± 2.8% and 50.8 ± 1.7%, respectively. The activity at 20 µM in test [3] (pH 6.4, 250 mM NaCl, 6 days) is 40.2 ± 8.5%; in test [4], 84.4 ± 13.1%.
